In US12642860B2, “Filamentous nanostructures and their use for treatment of pulmonary disease” (THE JOHNS HOPKINS UNIVERSITY, priority 2019, dated 2026):
Non-standard residues stand in square brackets, D forms with d. Residues, ends and D or L forms follow the SMILES beside them. ξ: configuration not given here. *: point of attachment. X2 = CCCC1O[C@@H]2C[C@H]3[C@@H]4CCC5=CC(=O)C=C[C@]5(C)[C@H]4[C@@H](O)CC3(C)C2(C(=O)COC(=O)OCCS*)O1; Lauroyl = CCCCCCCCCCCC(=O)*; X1 = COCCOCCOCCOCCOCCC(=O)*; ξE = NC(CCC(=O)O)C(=O)O; ξQ = NC(=O)CCC(N)C(=O)O; ξD = NC(CC(=O)O)C(=O)O; ξL = CC(C)CC(N)C(=O)O; ξK = NCCCCC(N)C(=O)O; ξV = CC(C)C(N)C(=O)O; ξP = O=C(O)C1CCCN1

How the values were obtained:
Format in all cases: physicochemical
[1] = TEM morphology of filaments after jet nebulization; details: 500 μM, jet nebulization 10 min, mist and reservoir
From the text: (§1) Since the supramolecular filament compositions are several microns long and are formed through non-covalent interactions, their structural integrity may be influenced by a number of factors during nebulization, such as agitation and aerosol formation. Thus, we first assessed the structural stability of these systems while traveling in aerosol droplets generated by a jet nebulizer. Nebulizers are commonly employed medical devices for producing liquid aerosol droplets containing therapeutics via high velocity airflow through the device nozzle. Droplets very large in diameter impact baffles and/or the walls of the nebulizer and are recycled back into the device's reservoir, but droplets small enough to circumvent these barriers (typically ranging in diameter from 1 to 10 μm) exit the device as a respirable aerosol. Therefore, we characterized two groups of structures after nebulization: the exiting mist and the leftover solution in the reservoir. Filament compositions in solutions diluted down to 500 µM of the different PAs were loaded into a jet nebulizer and nebulized for 10 minutes, and the mist and leftover reservoir solutions were collected and subsequently analyzed with TEM. […] For both the nebulized and reservoir populations, we see the introduction of short bundled fibrils, worm-like micelles, and spherical micelles (spherical micelles depicted in FIG. 7).
After encapsulation, we used TEM imaging to confirm self-assembly of the system into filamentous nanostructures. […] Spherical micelles are still observed, but the fibril and worm-like structures are not. […] In terms of delivering therapeutics in an aerosol, this presents an effective strategy for improving structural stability of supramolecular peptide-based assemblies during nebulization.

[2] = Loading capacity of drugs/dye within KPA filaments; details: encapsulated in KPA filaments, % by mass
From the text: FIGS. 20A-20C show (20A) the molecular structure of the lung disease-relevant drugs and fluorescent dye used in loading within the supramolecular filaments: paclitaxel (PTX, MW=853.92 g/mol), the anticancer drug; coumarin 6 (Cou6, MW=350.44 g/mol), the green fluorescent dye; and budesonide (BUD, MW=430.54 g/mol), the anti-inflammatory glucocorticoid used to treat symptoms of asthma and chronic obstructive pulmonary disease (top). (20B) The encapsulation process of hydrophobic drugs and dyes within supramolecular peptide amphiphile (PA)-based filaments, where dissolution of PA monomers and drug/dye in aqueous solutions results in their self-assembly with the drug/dye loaded within the hydrophobic core (left). The loading capacity of PTX, Cou6, and BUD based on mass (left axis, solid bars) and mole (right axis, checkered bars) percent within KPA supramolecular filaments (right). Data are given as mean±SD (n=5). (20C) Representative transmission electron microscopy (TEM) images of KPA filaments loaded with PTX (i, ii), Cou6 (iii, iv), and BUD (v, vi) before and after nebulization at 500 μM. Diameters are given as mean±SD (n=35).
With better insight into nebulization stability and the mechanism of supramolecular filament breakdown, we next sought to assess whether these systems can successfully carry drugs and dyes within aerosol droplets for potential inhalation-based therapies. […]

[3] = Critical assembly concentration (CAC) by Nile Red assay; details: in water
From the text: FIGS. 17A-17C depict the critical assembly concentration (CAC) of (17A) EPA, (17B) OPA, and (17C) KPA molecules in water as measured from a Nile Red assay. A fluorescence intensity maximum is shifted from a wavelength of 660 nm to 635 nm as Nile Red dye becomes encapsulated within the supramolecular structures of the peptide amphiphiles (PAs). Blue line represents region of concentrations where Nile Red remains in solution; red line represents region where Nile Red is encapsulated. Data are given as mean±SD (n=3).
Therefore, we assessed the thermodynamic stability of each supramolecular filament system by measuring their critical assembly concentration (CAC) using a Nile Red assay. As shown in FIGS. 17A-C, the CAC values of EPA, OPA, and KPA were measured to be 1 μM, 1.9 μM, and 40 μM, respectively. Data from the Nile Red assay are given in full in FIG. 18. The differences in CAC between the different PAs are likely reflective of differences in electrostatic repulsion between the charged groups of EPA and KPA and steric effects with respect to the size of the OEG groups of the OPA molecule.^74 We find a direct correlation between the CAC value and nebulization stability of the supramolecular filaments with respect to nanostructure integrity and hydrogen bonding interactions. […] As the CAC value represents the propensity of the monomer units to aggregate in solution, increasing the strength of hydrophobic interactions alongside other non-covalent interactions through molecular engineering can result in lower CAC systems, and thus create supramolecular filament systems with enhanced stability during aerosol formation.

[4] = Dynamic light scattering molar scattering rate during nebulization; details: measured every 2 min for 10 min nebulization
Description: We next investigated whether this filament breakdown was consistent over the course of a nebulization event. We measured the molar scattering rate of the filaments with dynamic light scattering (DLS) every 2 min for a total 10 min as a measure of assembly size, as larger filamentous assemblies will scatter light more strongly than smaller ones. The molar scattering rate represents the scattering rate normalized to the sample concentration and is used here, since the DLS software uses models for fitting spherical particles and our structures are anisotropic. […] In terms of delivering supramolecular filament systems with a jet nebulizer for treatment administration, the consistent filament breakdown over the course of a nebulization event is promising in regard to aerosol delivery, as the filaments are released reliably with a relatively uniform size drop over time from the device.

[5] = Contour length analysis of filaments in TEM images after jet nebulization; details: jet nebulization 10 min, mean±SD; for average contour length, exiting the nebulizer as a mist: nebulized mist population; for average contour length, leftover in the reservoir: reservoir population
From the text: FIGS. 12A-12F are contour length reduction analyses of (12A) EPA, (12B) OPA, and (12C) KPA filaments after nebulization, comparing the nebulized (red) and reservoir (blue) populations' size distributions (20 bins, 50 nm each). Nebulized populations measured shorter on average compared to the reservoir populations. Average contour lengths (μ) given as mean±SD alongside medians (M) for each population (****p<0.0001, two-tail unpaired t test; EPA: nN=316, nR=316; OPA: nN=311, nR=339; KPA: nN=377, nR=369). Dynamic light scattering measurements of (12D) EPA, (12E) OPA, and (12F) KPA over the course of a 10 min nebulization event as collected every 2 min, showing consistent filament breakdown over time. Data are normalized to molar scattering rate of filaments at t=0 min and given as mean±SD (p>0.05, two-way ANOVA, n=3).
as §1
Filaments before nebulization were not measured, as accurate contour lengths could not be determined, since the filaments are over several microns long. For all three systems, the nebulized population was measured to be on average shorter than its respective reservoir population. […] The EPA, OPA, and KPA filaments averaged around 287±147 nm, 174±103 nm, and 133±108 nm, respectively, exiting the nebulizer as a mist and around 360±177 nm, 206±88 nm, and 196±113 nm, respectively, leftover in the reservoir. For the KPA system, spherical micelles were omitted from this analysis as they bias the distribution representation toward non-filamentous structures.

[6] = Circular dichroism of filaments before and after nebulization; details: for CD signal immediately after nebulization, mist / CD signal immediately after nebulization, reservoir: 500 μM, 10 min nebulization; for CD signal immediately after nebulization, mist: filaments collected in the mist; for CD signal immediately after nebulization, reservoir: filaments leftover in the reservoir; for CD signal 2 weeks after nebulization: same solutions aged additional 2 weeks at room temperature
Description: FIGS. 13A-13C show circular dichroism (CD) spectra of the supramolecular filament systems before and immediately after nebulization (solid lines) alongside the same solutions 2 weeks later (dashed lines). All filaments were nebulized at 500 µM for 10 min. Data given are mean spectra for each solution (n=3). (13A) EPA filaments before and after nebulization, showing preservation of β-sheet character during nebulization. (13B) OPA filaments before and after nebulization, showing retention of β-sheet character with a temporary increase in CD signal. (13C) KPA filaments before and after nebulization, showing a transition from β-sheet to random coil for the nebulization group and weakened β-sheet hydrogen bonding for the reservoir group.
While we were able to directly observe filament breakdown in terms of length, we investigated further the impact nebulization may have on the molecular packing of the PA monomers within the supramolecular filaments. FIG. 13 contains the representative circular dichroism (CD) spectra of the three filament systems before and after a 10 min nebulization event of both filaments that exit as mist and those leftover in the reservoir. EPA, OPA, and KPA filaments before nebulization show primarily β-sheet characteristic hydrogen bonding, as evidenced by a negative peak around 220 nm and a positive peak around 197 nm for each system. […] This slightly contrasts from the behavior observed for the EPA filaments and is likely attributed to the potential alignment of OEG chains of OPA from aerosol formation forces, which reduces steric repulsion between OPA monomers. […] This is corroborated by the morphologies observed for the KPA filaments after nebulization, as smaller worm-like micelles and spherical micelles were generated. The strength of the hydrogen-bonding network within the supramolecular filaments is evidently important in the maintenance and stabilization of β-sheet character after nebulization.
To gain insight into the thermodynamic stability of the new assembly states induced by nebulization, we analyzed the CD signal of the same filament solutions after nebulization after aging for an additional 2 weeks in solution at room temperature. […] Additionally, the shorter EPA and OPA filaments are still observed in the nebulized and reservoir groups with TEM imaging after 2 weeks (FIGS. 14 and 15). […] Since a transition back to β-sheet character is not observed for the nebulized group, it is likely that nebulization induces the formation of new metastable assemblies of the KPA monomers, which is corroborated by TEM images of the KPA filaments 2 weeks after nebulization, as the fibril, worm-like micelle, and spherical micelle structures are still observed (FIG. 16).

Row | SMILES | structure/morphology after nebulization (TEM) [1] | loading capacity by mass within KPA filaments [2] | critical assembly concentration (CAC) [3] | filament breakdown over time (molar scattering rate, DLS) [4] | average contour length, exiting the nebulizer as a mist [5] | average contour length, leftover in the reservoir [5] | CD signal immediately after nebulization, mist [6] | CD signal immediately after nebulization, reservoir [6] | CD signal 2 weeks after nebulization [6]
1 | CCCC1O[C@@H]2C[C@H]3[C@@H]4CCC5=CC(=O)C=C[C@]5(C)[C@H]4[C@@H](O)CC3(C)C2(C(=O)COC(=O)OCCSSC[C@H](NC(C)=O)C(=O)NC(C(=O)N[C@H](C(=O)NC(C(=O)NCC(=O)NCC(=O)NC(CCCCN)C(=O)NC(C(=O)NC(CC(C)C)C(=O)NC(CC(=O)O)C(=O)NCC(=O)NC(CCC(N)=O)C(=O)NC(CC(=O)O)C(=O)N2CCCC2C(N)=O)C(C)C)C(C)C)C(C)C)C(C)C)O1 (some centres unmarked) [CAB-0] (Ac-C(X2)[ξV]V[ξV]GG[ξK][ξV][ξL][ξD]G[ξQ][ξD][ξP]-NH2) | retention of filaments after a nebulization event with shortened length |  |  |  |  |  |  |  | 
2 | CC(=O)O[C@H]1C(=O)[C@@]2(C)[C@H]([C@H](OC(=O)c3ccccc3)[C@]3(O)C[C@H](OC(=O)[C@H](O)[C@@H](NC(=O)c4ccccc4)c4ccccc4)C(C)=C1C3(C)C)[C@]1(OC(C)=O)CO[C@@H]1C[C@@H]2O [PTX, paclitaxel] |  | 1.5% |  |  |  |  |  |  | 
3 | CCCCCCCCCCCC(=O)N[C@@H](Cc1ccc(O)cc1)C(=O)NC(C(=O)N[C@H](C(=O)NC(C(=O)NCC(=O)NCC(=O)N[C@@H](CCC(=O)O)C(=O)NC(CCC(=O)O)C(=O)N[C@@H](CCC(=O)O)C(N)=O)C(C)C)C(C)C)C(C)C (some centres unmarked) [EPA] (Lauroyl-Y[ξV]V[ξV]GGE[ξE]E-NH2) | maintained their filamentous structure but a notable reduction in length was observed |  | 1 µM | consistent breakdown over the course of 10 min | around 287±147 nm | around 360±177 nm | slightly increased β-sheet signal | no change to their hydrogen bonding | maintained their β-sheet character
4 | CCCCCCCCCCCC(=O)N[C@@H](Cc1ccc(O)cc1)C(=O)NC(C(=O)N[C@H](C(=O)NC(C(=O)NCC(=O)NCC(=O)N[C@@H](CCCCNC(=O)CCOCCOCCOCCOCCOC)C(=O)NC(CCCCNC(=O)CCOCCOCCOCCOCCOC)C(N)=O)C(C)C)C(C)C)C(C)C (some centres unmarked) [OPA] (Lauroyl-Y[ξV]V[ξV]GGK(X1)[ξK](X1)-NH2) | shorter filaments are produced |  | 1.9 µM | consistent breakdown over the course of 10 min | ~174±103 nm | ~206±88 nm | increased β-sheet signals | increased β-sheet signals | maintained their β-sheet character
5 | CCCCCCCCCCCC(=O)N[C@@H](Cc1ccc(O)cc1)C(=O)NC(C(=O)N[C@H](C(=O)NC(C(=O)NCC(=O)NCC(=O)N[C@@H](CCCCN)C(=O)NC(CCCCN)C(=O)N[C@@H](CCCCN)C(N)=O)C(C)C)C(C)C)C(C)C (some centres unmarked) [KPA] (Lauroyl-Y[ξV]V[ξV]GGK[ξK]K-NH2) | formation of different morphologies in both populations |  | 40 µM | consistent breakdown over the course of 10 min | ~133±108 nm | ~196±113 nm | secondary structure transition from β-sheet to random coil character | weakened β-sheet signal | continued to display the weakened β-sheet signal in the reservoir group and the random coil character of the nebulized group
